Data reported in patent US12319655B2, “RAF kinase inhibitors and methods of use thereof” (Deciphera Pharmaceuticals, LLC, priority 2021, dated 2025).

Key:
[1] = molecular target: A-Raf kinase (SEQ. ID No: 1) (Homo sapiens (Human), UniProt P10398, Y301D/Y302D); test: Biochemical Assay for A-Raf (1); settings: Table J, assay version (1); read-out: ARAF (1) IC50
Experimental: Biochemical Assay for A-Raf (1)
(§1) Activity of A-Raf kinase (SEQ. ID No: 1) was determined spectroscopically using a coupled pyruvate kinase/lactate dehydrogenase assay that continuously monitors the ATP hydrolysis-dependent oxidation of NADH (e.g., Schindler et al., Science, 2000, 289, 1938-1942). Assays were conducted in 384-well plates (100 μL final volume) using 5.55 nM A-Raf (Sigma), 1.5 units pyruvate kinase, 2.1 units lactate dehydrogenase, 1 mM phosphoenol pyruvate, 0.28 mM NADH, 30.1 nM MEK (SignalChem), and 1 mM ATP in assay buffer (100 mM Tris, pH 7.5, 15 mM MgCl2, 0.5 mM DTT, 0.1% octyl-glucoside, 0.002% (w/v) BSA, and 0.002% Triton X-100). Inhibition of A-Raf was measured by adding serial diluted test compound (final assay concentration of 1% DMSO). A decrease in absorption at 340 nm was monitored continuously for 6 h at 30° C. on a multi-mode microplate reader (BioTek). The reaction rate was calculated using the 4 to 5 h time frame. The reaction rate at each concentration of compound was converted to percent inhibition using controls (i.e., reaction with no test compound and reaction with a known inhibitor) and IC50 values were calculated by fitting a four-parameter sigmoidal curve to the data using Prism (GraphPad software).

[2] = molecular target: C-Raf kinase (SEQ. ID NO: 3) (Homo sapiens (Human), UniProt P04049, Y340D/Y341D); test: Biochemical Assay for C-Raf (1); settings: Table J, assay version (1); read-out: CRAF (1) IC50
Experimental: Biochemical Assay for C-Raf (1)
as §1, with “C-Raf” for “A-Raf”, “NO: 3)” for “No: 1)”, “0.43” for “5.55”, “Ph” for “pH”

[3] = molecular target: B-Raf kinase (SEQ. ID NO: 2) (Homo sapiens (Human), UniProt P15056); test: Biochemical Assay for B-Raf (1); settings: Table J, assay version (1); read-out: BRAF (1) IC50
Experimental: Biochemical Assay for B-Raf (1)
as §1, with “B-Raf” for “A-Raf”, “NO: 2)” for “No: 1)”, “0.13” for “5.55”, “Ph” for “pH”

[4] = molecular target: B-Raf (V600E) (SEQ. ID NO: 4) kinase (Homo sapiens (Human), UniProt P15056, V600E); test: Biochemical Assay for B-Raf (V600E) (1); settings: Table J, BRAF V600E, assay version (1); read-out: BRAF VE (1) IC50
Experimental: Biochemical Assay for B-Raf (V600E) (1)
Activity of B-Raf (V600E) (SEQ. ID NO: 4) kinase was determined spectroscopically using a coupled pyruvate kinase/lactate dehydrogenase assay that continuously monitors the ATP hydrolysis-dependent oxidation of NADH (e.g., Schindler et al., Science, 2000, 289, 1938-1942). Assays were conducted in 384-well plates (100 μL final volume) using 0.03 nM B-Raf (SignalChem), 1.5 units pyruvate kinase, 2.1 units lactate dehydrogenase, 1 mM phosphoenol pyruvate, 0.28 mM NADH, 30.1 nM MEK (SignalChem), and 1 mM ATP in assay buffer (100 mM Tris, Ph 7.5, 15 mM MgCl2, 0.5 mM DTT, 0.1% octyl-glucoside, 0.002% (w/v) BSA, and 0.002% Triton X-100). Inhibition of B-Raf (V600E) was measured by adding serial diluted test compound (final assay concentration of 1% DMSO). A decrease in absorption at 340 nm was monitored continuously for 6 h at 30° C. on a multi-mode microplate reader (BioTek). The reaction rate was calculated using the 3 to 4 h time frame. The reaction rate at each concentration of compound was converted to percent inhibition using controls (i.e., reaction with no test compound and reaction with a known inhibitor) and IC50 values were calculated by fitting a four-parameter sigmoidal curve to the data using Prism (GraphPad software).

Chain of A-Raf kinase (SEQ. ID No: 1) (P10398 other isoform, or with tags, fused parts or gaps Y301D (already in the parent)/Y302D (already in the parent)): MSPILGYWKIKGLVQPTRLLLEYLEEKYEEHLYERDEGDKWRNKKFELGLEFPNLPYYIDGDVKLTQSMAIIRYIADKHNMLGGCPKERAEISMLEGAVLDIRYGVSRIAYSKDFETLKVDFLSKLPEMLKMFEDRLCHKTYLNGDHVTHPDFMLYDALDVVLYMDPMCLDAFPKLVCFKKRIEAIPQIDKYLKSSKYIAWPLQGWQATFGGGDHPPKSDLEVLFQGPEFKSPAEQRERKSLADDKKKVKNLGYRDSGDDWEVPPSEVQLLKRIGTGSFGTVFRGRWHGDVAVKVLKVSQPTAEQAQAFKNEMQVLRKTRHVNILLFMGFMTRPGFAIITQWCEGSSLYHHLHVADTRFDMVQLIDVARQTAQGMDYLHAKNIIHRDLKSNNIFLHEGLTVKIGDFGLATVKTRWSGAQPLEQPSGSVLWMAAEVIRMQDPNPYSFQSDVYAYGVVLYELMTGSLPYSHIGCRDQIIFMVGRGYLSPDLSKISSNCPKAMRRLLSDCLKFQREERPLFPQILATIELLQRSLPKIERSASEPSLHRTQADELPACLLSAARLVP
Chain of C-Raf kinase (SEQ. ID NO: 3) (P04049 307-648 Y340D/Y341D): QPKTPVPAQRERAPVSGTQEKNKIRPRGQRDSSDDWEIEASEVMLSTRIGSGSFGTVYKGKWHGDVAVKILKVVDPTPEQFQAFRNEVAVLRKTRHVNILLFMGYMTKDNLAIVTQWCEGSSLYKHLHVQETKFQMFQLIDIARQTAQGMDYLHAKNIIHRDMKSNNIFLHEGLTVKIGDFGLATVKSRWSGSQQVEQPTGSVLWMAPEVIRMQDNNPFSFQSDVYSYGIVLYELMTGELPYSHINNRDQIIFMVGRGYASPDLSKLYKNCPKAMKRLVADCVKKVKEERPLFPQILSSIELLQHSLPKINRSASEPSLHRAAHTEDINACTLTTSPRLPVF
Chain of B-Raf kinase (SEQ. ID NO: 2) (P15056 416-766): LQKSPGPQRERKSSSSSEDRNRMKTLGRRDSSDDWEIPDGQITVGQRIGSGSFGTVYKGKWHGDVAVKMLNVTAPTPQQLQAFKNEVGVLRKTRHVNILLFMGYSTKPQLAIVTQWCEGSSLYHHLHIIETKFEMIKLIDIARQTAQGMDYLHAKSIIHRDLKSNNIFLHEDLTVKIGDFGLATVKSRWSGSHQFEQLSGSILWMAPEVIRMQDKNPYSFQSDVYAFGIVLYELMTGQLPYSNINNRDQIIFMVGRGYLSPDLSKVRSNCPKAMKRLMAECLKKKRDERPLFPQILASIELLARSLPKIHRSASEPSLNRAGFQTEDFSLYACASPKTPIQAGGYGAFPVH
Chain of B-Raf (V600E) (SEQ. ID NO: 4) kinase (P15056 416-766 V600E): as the sequence (P15056 416-766) above, with V185E counted along it

SMILES	IC50 [1]	IC50 [2]	IC50 [3]	IC50 [4]
CC(=O)Nc1cc(-c2cc(-c3cc(NC(=O)c4ccnc(C(F)(F)F)c4)ccc3C)cc(C(C)(C)O)n2)ccn1 [Example 33]	1000 to 10000 nM	100 to 500 nM	1000 to 10000 nM	≤ 100 nM
CC(=O)Nc1cc(-c2cc(-c3cc(NC(=O)c4ccnc(C(F)(F)F)c4)ccc3C)nn(C)c2=O)ccn1 [Example 34]	1000 to 10000 nM	1000 to 10000 nM	1000 to 10000 nM	1000 to 10000 nM
CNC(=O)c1cc(-c2cc(-c3cc(NC(=O)c4ccnc(C(F)(F)F)c4)ccc3C)nn(C)c2=O)ccn1 [Example 51]	1000 to 10000 nM	1000 to 10000 nM	1000 to 10000 nM	1000 to 10000 nM
CNC(=O)c1cc(-c2cc(-c3cc(NC(=O)c4ccnc(C(F)(F)F)c4)ccc3C)cc(=O)n2C)ccn1 [Example 67]	1000 to 10000 nM	500 to 1000 nM	1000 to 10000 nM	≤ 100 nM
Cc1ncc(NC(=O)c2ccnc(C(C)(C)C#N)c2)cc1-c1nccc(-c2ccnc3c2CC(=O)N3)n1 [Example 93]	1000 to 10000 nM	500 to 1000 nM	1000 to 10000 nM	100 to 500 nM
CNC(=O)c1cc(-c2cc(-c3cc(NC(=O)c4ccnc(C(F)F)c4)c(F)cc3C)cc(=O)n2C)ccn1 [Example 115]	1000 to 10000 nM	1000 to 10000 nM	1000 to 10000 nM	100 to 500 nM
COCCNc1cc(-c2cncc(-c3cc(NC(=O)c4ccnc(C(F)(F)F)c4)ccc3C)n2)ccn1 [Example 119]	1000 to 10000 nM	100 to 500 nM	100 to 500 nM	≤ 100 nM
CNC(=O)c1cc(-c2cc(-c3cc(NC(=O)c4cc(C(F)(F)F)ccn4)ccc3C)ccn2)ccn1 [Example 126]	1000 to 10000 nM	≤ 100 nM	100 to 500 nM	≤ 100 nM
COCC(=O)Nc1cc(-c2nccc(-c3cc(NC(=O)c4ccnc(C(F)(F)F)c4)ccc3C)n2)ccn1 [Example 137]	1000 to 10000 nM	≤ 100 nM	≤ 100 nM	≤ 100 nM
CNC(=O)c1cc(-c2cncc(-c3cc(NC(=O)c4cc(C(F)(F)F)cc(CN(C)C)n4)ccc3C)n2)ccn1 [Example 147]	1000 to 10000 nM	100 to 500 nM	500 to 1000 nM	≤ 100 nM
Cc1ccc(NC(=O)c2cc(C(F)(F)F)ccn2)cc1-c1cncc(-c2ccnc(NC(=O)C3CC3)c2)n1 [Example 167]	1000 to 10000 nM	≤ 100 nM	≤ 100 nM	≤ 100 nM
CNC(=O)c1cc(-c2cncc(-c3cc(NC(=O)c4ccnc(C(C)(C)C#N)c4)c(F)cc3C)n2)ccn1 [Example 170]	1000 to 10000 nM	100 to 500 nM	100 to 500 nM	≤ 100 nM
Cc1ccc(NC(=O)c2ccnc(C3(C#N)CC3)c2)cc1-c1cncc(-c2ccnc(NC(=O)C3CC3)c2)n1 [Example 183]	100 to 500 nM	≤ 100 nM	≤ 100 nM	≤ 100 nM
Cc1ccc(NC(=O)c2cc(C(F)(F)F)ccn2)cc1-c1ccnc(-c2ccnc(NC(=O)C3CC3)c2)n1 [Example 188]	1000 to 10000 nM	≤ 100 nM	≤ 100 nM	≤ 100 nM
Cc1ccc(NC(=O)c2ccnc(C(C)(C)C#N)c2)cc1-c1ccnc(-c2ccnc(NC(=O)C(C)(C)C)c2)c1 [Example 206]	1000 to 10000 nM	100 to 500 nM	100 to 500 nM	≤ 100 nM
COC(C)(C)C(=O)Nc1cc(-c2cccc(-c3cc(NC(=O)c4ccnc(C(C)(C)C#N)c4)cnc3C)c2)ncn1 [Example 208]	1000 to 10000 nM	500 to 1000 nM	1000 to 10000 nM	100 to 500 nM
COC(C)(C)C(=O)Nc1cc(-c2cc(-c3cc(NC(=O)c4ccnc(C(C)(C)C#N)c4)cnc3C)ccn2)ccn1 [Example 209]	1000 to 10000 nM	500 to 1000 nM	1000 to 10000 nM	100 to 500 nM
COC(C)(C)C(=O)Nc1cc(-c2cccc(-c3cc(NC(=O)c4ccnc(C(C)(C)C#N)c4)ccc3C)c2)ncn1 [Example 211]	1000 to 10000 nM	500 to 1000 nM	500 to 1000 nM	≤ 100 nM
Cc1ncc(NC(=O)c2ccnc(C(C)(C)C#N)c2)cc1-c1ccnc(-c2ccnc(NC(=O)C(C)(C)C)c2)c1 [Example 228]	1000 to 10000 nM	100 to 500 nM	100 to 500 nM	≤ 100 nM
Cc1ccc(NC(=O)c2ccnc(C(C)(C)F)c2)cc1-c1nccc(-c2ccnc(NC(=O)C3CC3)c2)n1 [Example 232]	100 to 500 nM	≤ 100 nM	≤ 100 nM	≤ 100 nM
CNC(=O)c1cc(-c2cccc(-c3cc(NC(=O)c4ccnc(C(C)(C)C#N)c4)ccc3C)n2)ccn1 [Example 234]	1000 to 10000 nM	≤ 100 nM	≤ 100 nM	≤ 100 nM
COC1(C(=O)Nc2cc(-c3cccc(-c4cc(NC(=O)c5ccnc(C(C)(C)C#N)c5)ccc4C)c3)ncn2)CC1 [Example 243]	1000 to 10000 nM	100 to 500 nM	500 to 1000 nM	≤ 100 nM
Cc1cc(F)c(NC(=O)c2ccnc(C(C)(C)C#N)c2)cc1-c1nccc(-c2ccnc(NC(=O)C3CC3)c2)n1 [Example 244]	100 to 500 nM	≤ 100 nM	≤ 100 nM	≤ 100 nM
CCOc1ncc(-c2cc(NC(=O)c3ccnc(C(C)(C)C#N)c3)ccc2C)cc1-c1ccnc(C(=O)NC)c1 [Example 260]	1000 to 10000 nM	≤ 100 nM	100 to 500 nM	≤ 100 nM
Cc1cc(C(=O)Nc2cnc(C)c(-c3nccc(-c4ccnc(NC(=O)C5CC5)c4)n3)c2)ccn1 [Example 296]	1000 to 10000 nM	100 to 500 nM	100 to 500 nM	≤ 100 nM
Cc1ncc(NC(=O)C2CCN(C)C2)cc1-c1nccc(-c2ccnc(NC(=O)C3CC3)c2)n1 (centres unmarked) [Example 334]	1000 to 10000 nM	1000 to 10000 nM	1000 to 10000 nM	1000 to 10000 nM
